Marks after values point to notes of the source that are not given here.
Assays:
testes of a male pig = assay: Example 3: pattern of testicular shrinkage after intratesticular injection in male pig; assay type: in vivo; conditions: 1 ml of 10% by weight solution per testis
testis = assay: Example 2: beagle puppy injected in each testis, testes excised at 30 months; assay type: in vivo, beagle dog; conditions: 0.25 ml per testis (13.1 mg/ml zinc), dorsal cranial, injected at six months, sacrificed at 30 months; control 6.8 g
Description: A beagle puppy weighing 19 lbs at six months of age was injected in each testis with 0.25 ml of a chemical sterilant containing 13.1 mg/ml of zinc as zinc gluconate neutralized by 34.8 mg/ml of l-arginine with the pH adjusted to 7.0 with hydrochloric acid. The injection was into the dorsal cranial portion of the testis as could best be estimated externally.
The treated animal was sacrificed at 30 months of age when he weighed 31 lbs. The testes were excised and each weighed 3.5 g.
A control beagle weighing 18 lbs at six months was housed with the treated animal. This animal was also sacrificed at 30 months. The control dog weighed 30 lbs and each testis weighed 6.8 g. A histological section of the rete testis of the control animal was taken and a light micrograph of the section at 10× is shown in FIG. 2.

[1] = tested on: testes of Sprague Dawley male rats; assay: Example 4: infertility/sterility in rats, dorsal cranial vs midline injection, histopathology of epididymides and testes; assay type: in vivo, rat; conditions: 0.1 ml 10% per testis; for infertility/sterility achieved, share of rats: two months post-injection, 10 rats
Description: Twenty (20) Sprague Dawley, male rats were divided into two groups of ten (10) rats per group. […] Two months post-injection, both groups were sacrificed, and all of the epididymides and testes were evaluated by histopathology.

[2] = Example 5: body homeostasis, clinical observations and testicular measurement in Beagle puppies; assay type: in vivo, Beagle dog; conditions: 25, 30 or 35 mg per testis
Description: (§1) Forty (40) healthy, male Beagle puppies, six months of age, were divided into the following four groups according to testicular width.
The body weight of all dogs increased.
(§2) As compared to the control placebo group, serum testosterone level at twelve (12) months post-injection had (1) decreased by 43% in the 25 mg treated group, (2) decreased by 55% in the 30 mg treated group, and (3) decreased by 52% in the 35 mg treated group.

serum testosterone = assay: Example 5: serum testosterone level in Beagle puppies; assay type: in vivo, Beagle dog; conditions: twelve months post-injection
Description: as §1, §2

[3] = tested on: testes of male Beagle puppies; assay: Example 5: semen analysis of Beagle puppies; assay type: in vivo, Beagle dog
Description: as §1
Semen analysis was performed on a monthly basis for […]. Semen analysis at 24 months post-injection indicated the following.

male Beagle puppies = assay: Example 5: exposure of treated dogs to females in heat (copulation, pregnancy); assay type: in vivo, Beagle dog; conditions: for number of the ten dogs that copulated with females: each dog exposed to three females in heat
Description: as §1
Of the ten control placebo dogs, seven copulated with females and pregnancy occurred in all of the females (100% pregnancy rate). Each of the treated dogs was exposed to three different females in heat.

[4] = tested on: testes of male Beagle puppies; assay: Example 5: quantitative evaluation of testis histopathology; assay type: in vivo, Beagle dog; conditions: n = 10
Description: as §1
Quantitative information provides the strongest evidence that control and treated tissues are either alike or different. In order to obtain the very detailed information about the testes after dorsal cranial injection, quantitative evaluation of the testes histopathology was performed in 40 dogs post-injection.

testes of male puppies = assay: Example 6: clinical trial in 225 male puppies at five sites, semen analysis and physical examination; assay type: in vivo, dog
Description: Four hundred fifty (450) intratesticular injections were performed in the dorsal cranial area of the testes of 225 male puppies (one injection per testis; two testes per dog) at five investigational sites. The 225 puppies ranged in age from 2½ to 10 months and were of various breeds. After the necessary training, all of the investigators mastered the technique of testicular measurement and intratesticular injection (dorsal cranial). Based on the experience of these investigators in the clinical trial, all veterinarians will be able to easily use this dorsal cranial injection technique.
After at least 6 months of follow-up, semen analysis and physical examination were performed as the primary indicators of clinical trial efficacy.

[5] = tested on: testes of sexually mature male dogs; assay: Example 7: semen evaluation of 53 sexually mature male dogs; assay type: in vivo, dog; conditions: six months post-injection, one of 53 dogs
Description: Dosage was based on testicular width according to the following table.
Semen analysis of all dogs prior to injection indicated normal fertility parameters. All of the dogs were followed for six months post-injection, and semen analysis was performed at 2 month intervals for a total of three times.

[6] = dorsal cranial injection, two months
[7] = 25 mg per testis, 24 months post-injection, n = 10
[8] = 25 mg per testis, the 10% of dogs with severe oligospermia, 24 months
[9] = Total of all six doses, n = 225

N=C(N)NCCC[C@H](N)C(=O)O.[Zn] [zinc arginine]
pattern of testicular shrinkage (testes of a male pig; injection at the dorsal cranial area (FIG. 5)): proportional shrinkage | pattern of testicular shrinkage (testes of a male pig; injection at the midline (FIG. 4)): disproportional shrinkage

zinc gluconate neutralized by arginine
weight of each excised testis (testis): 3.5 g | function of the testes (histopathology) [1, 6]: complete dysfunction in the testes | sperm in the epididymides [1, 6]: no sperm were found in the epididymides | infertility/sterility achieved, share of rats ([1]; dorsal cranial injection): 100% | function of the testes (histopathology) ([1]; midline injection, two months): some parts of the testes were functioning | share of epididymides in which sperm were found ([1]; midline injection, two months): 30% | infertility/sterility achieved, share of rats ([1]; midline injection): 70% | effect on rectal temperature, complete blood count, blood chemistries [2]: no clinical effect | body weight ([2]; all dogs): increased | effect on body homeostasis ([2]; dorsal cranial): None of the treatments affected body homeostasis | testicular swelling post-injection ([2]; for one week post-injection): transient testicular swelling | testicular measurement after the first week ([2]; p<0.0001, control placebo increased): decreased significantly | decrease of serum testosterone level compared to control placebo (serum testosterone; 25 mg per testis): 43% | decrease of serum testosterone level compared to control placebo (serum testosterone; 30 mg per testis): 55% | decrease of serum testosterone level compared to control placebo (serum testosterone; 35 mg per testis): 52% | share of dogs permanently sterilized (azoospermia or aspermia) [3, 7]: 90% | share of dogs with severe oligospermia [3, 7]: 10% | Concentration/ml (×10^6) [3, 8]: 0.01 ×10^6/ml | Motility [3, 8]: 1.00% | Normal Sperm [3, 8]: 6.70% | Volume of Ejaculation [3, 8]: 0.74 mL | share of dogs permanently sterilized (azoospermia or aspermia) ([3]; 30 mg per testis, 24 months post-injection, n = 10): 100% | share of dogs permanently sterilized (azoospermia or aspermia) ([3]; 35 mg per testis, 24 months post-injection, n = 10): 100% | overall outcome of one intratesticular injection ([3]; dorsal cranial area, male puppies): permanent sterilization | number of the ten dogs that copulated with females (male Beagle puppies; 25 mg per testis): Two | number of the ten dogs that copulated with females (male Beagle puppies; 30 mg per testis): five | number of the ten dogs that copulated with females (male Beagle puppies; 35 mg per testis): four | pregnancy of females after copulation (male Beagle puppies; 25, 30 and 35 mg per testis, control placebo 100% pregnancy rate): no pregnancy occurred | Basement Membrane, Average ([4]; 25 mg per testis): 4.80 μm | Basement Membrane, Left ([4]; 25 mg per testis): 5.00 μm | Basement Membrane, Right ([4]; 25 mg per testis): 4.59 μm | Diameter of Seminiferous Tubule, Average ([4]; 25 mg per testis): 124.00 μm | Diameter of Seminiferous Tubule, Left ([4]; 25 mg per testis): 116.0 μm | Diameter of Seminiferous Tubule, Right ([4]; 25 mg per testis): 132.0 μm | Height of Germinal Epithelium, Average ([4]; 25 mg per testis): 14.10 μm | Height of Germinal Epithelium, Left ([4]; 25 mg per testis): 11.8 μm | Height of Germinal Epithelium, Right ([4]; 25 mg per testis): 16.4 μm | Basement Membrane, Average ([4]; 30 mg per testis): 5.53 μm | Basement Membrane, Left ([4]; 30 mg per testis): 5.50 μm | Basement Membrane, Right ([4]; 30 mg per testis): 5.57 μm | Diameter of Seminiferous Tubule, Average ([4]; 30 mg per testis): 113.75 μm | Diameter of Seminiferous Tubule, Left ([4]; 30 mg per testis): 115.1 μm | Diameter of Seminiferous Tubule, Right ([4]; 30 mg per testis): 112.4 μm | Height of Germinal Epithelium, Average ([4]; 30 mg per testis): 7.20 μm | Height of Germinal Epithelium, Left ([4]; 30 mg per testis): 5.5 μm | Height of Germinal Epithelium, Right ([4]; 30 mg per testis): 8.9 μm | Basement Membrane, Average ([4]; 35 mg per testis): 6.00 μm | Basement Membrane, Left ([4]; 35 mg per testis): 6.04 μm | Basement Membrane, Right ([4]; 35 mg per testis): 5.96 μm | Diameter of Seminiferous Tubule, Average ([4]; 35 mg per testis): 124.05 μm | Diameter of Seminiferous Tubule, Left ([4]; 35 mg per testis): 124.8 μm | Diameter of Seminiferous Tubule, Right ([4]; 35 mg per testis): 123.3 μm | Height of Germinal Epithelium, Average ([4]; 35 mg per testis): 10.30 μm | Height of Germinal Epithelium, Left ([4]; 35 mg per testis): 9.6 μm | Height of Germinal Epithelium, Right ([4]; 35 mg per testis): 11.0 μm | Aspermia (No Semen Ejaculated), number of puppies (testes of male puppies; [9]): 174 | Azoospermia (No Sperm in Ejaculate), number of puppies (testes of male puppies; [9]): 48 | Necrospermia (Sperm in Ejaculate Are Dead or Motionless), number of puppies (testes of male puppies; [9]): 1 | Oligospermia (Less than 20 Million Sperm per ml), number of puppies (testes of male puppies; [9]): 1 | Sperm in Ejaculate Are Motile, number of puppies (testes of male puppies; [9]): 1 | Aspermia (No Semen Ejaculated), number of puppies (testes of male puppies; dose per testis 0.2 ml): 59 | Azoospermia (No Sperm in Ejaculate), number of puppies (testes of male puppies; dose per testis 0.2 ml): 12 | Necrospermia (Sperm in Ejaculate Are Dead or Motionless), number of puppies (testes of male puppies; dose per testis 0.2 ml): 0 | Oligospermia (Less than 20 Million Sperm per ml), number of puppies (testes of male puppies; dose per testis 0.2 ml): 1 | Sperm in Ejaculate Are Motile, number of puppies (testes of male puppies; dose per testis 0.2 ml): 0 | Aspermia (No Semen Ejaculated), number of puppies (testes of male puppies; dose per testis 0.3 ml): 27 | Azoospermia (No Sperm in Ejaculate), number of puppies (testes of male puppies; dose per testis 0.3 ml): 5 | Necrospermia (Sperm in Ejaculate Are Dead or Motionless), number of puppies (testes of male puppies; dose per testis 0.3 ml): 0 | Oligospermia (Less than 20 Million Sperm per ml), number of puppies (testes of male puppies; dose per testis 0.3 ml): 0 | Sperm in Ejaculate Are Motile, number of puppies (testes of male puppies; dose per testis 0.3 ml): 0 | Aspermia (No Semen Ejaculated), number of puppies (testes of male puppies; dose per testis 0.5 ml): 21 | Azoospermia (No Sperm in Ejaculate), number of puppies (testes of male puppies; dose per testis 0.5 ml): 7 | Necrospermia (Sperm in Ejaculate Are Dead or Motionless), number of puppies (testes of male puppies; dose per testis 0.5 ml): 0 | Oligospermia (Less than 20 Million Sperm per ml), number of puppies (testes of male puppies; dose per testis 0.5 ml): 0 | Sperm in Ejaculate Are Motile, number of puppies (testes of male puppies; dose per testis 0.5 ml): 1* | Aspermia (No Semen Ejaculated), number of puppies (testes of male puppies; dose per testis 0.7 ml): 30 | Azoospermia (No Sperm in Ejaculate), number of puppies (testes of male puppies; dose per testis 0.7 ml): 4 | Necrospermia (Sperm in Ejaculate Are Dead or Motionless), number of puppies (testes of male puppies; dose per testis 0.7 ml): 0 | Oligospermia (Less than 20 Million Sperm per ml), number of puppies (testes of male puppies; dose per testis 0.7 ml): 0 | Sperm in Ejaculate Are Motile, number of puppies (testes of male puppies; dose per testis 0.7 ml): 0 | Aspermia (No Semen Ejaculated), number of puppies (testes of male puppies; dose per testis 0.8 ml): 19 | Azoospermia (No Sperm in Ejaculate), number of puppies (testes of male puppies; dose per testis 0.8 ml): 4 | Necrospermia (Sperm in Ejaculate Are Dead or Motionless), number of puppies (testes of male puppies; dose per testis 0.8 ml): 1 | Oligospermia (Less than 20 Million Sperm per ml), number of puppies (testes of male puppies; dose per testis 0.8 ml): 0 | Sperm in Ejaculate Are Motile, number of puppies (testes of male puppies; dose per testis 0.8 ml): 0 | Aspermia (No Semen Ejaculated), number of puppies (testes of male puppies; dose per testis 1.0 ml): 18 | Azoospermia (No Sperm in Ejaculate), number of puppies (testes of male puppies; dose per testis 1.0 ml): 16 | Necrospermia (Sperm in Ejaculate Are Dead or Motionless), number of puppies (testes of male puppies; dose per testis 1.0 ml): 0 | Oligospermia (Less than 20 Million Sperm per ml), number of puppies (testes of male puppies; dose per testis 1.0 ml): 0 | Sperm in Ejaculate Are Motile, number of puppies (testes of male puppies; dose per testis 1.0 ml): 0 | efficacy (infertility/sterility) (testes of male puppies; six different doses, 225 puppies, at least 6 months of follow-up): 99.6% | number of puppies (of 225) in which infertility/sterility was achieved (testes of male puppies; six different doses, dorsal cranial, at least 6 months of follow-up): 224 | Sperm Concentration of the dog that stayed normal [5]: Normal 70 million/ml

Source: patent US8389019B2, “Method for improving the quality of meat by reducing boar taint” (priority 2007, dated 2013)
